Test results: patent publication US20230337677A1, “ARYL AND PYRIDYL AMIDE PESTICIDES AND COMPOSITIONS THEREOF” (University of Florida Research Foundation, Incorporated, priority 2019, published 2023)

Experiments:
[1] = tested on: Aedes aegypti mosquitoes, insecticide-susceptible Orlando strain; test: whole plant or invertebrate; details: 24 h; for mortality at 100 µg/cm2: read-out: 24 h % Mortality, 100 μg/cm^2
[2] = tested on: Aedes aegypti mosquitoes, insecticide-susceptible Orlando strain; format: in vivo; details: for 1 h % Repellency, 100 μg/cm^2: screened at 100 μg/cm^2, strain not given; for 1 h Repellency EC50, μg/cm^2: (OR); for vapor repellency / mortality, statement in words (Example 8): structure-activity analysis of Table 2
Method in brief: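 Sixteen female mosquitoes per glass tube facing netting-shielded filter paper treated with acetone solutions (30-0.01 μg/ml; screen at 100 μg/cm^2), no contact. Proportion on treated side scored up to 60 min, then flight-out checked 30 min; mortality after 24 hr constant exposure.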

[3] = tested on: Anopheles gambiae Akron kdr (Akdr) strain, resistant to pyrethroids; test: Topical toxicity (24 hour mortality), An. gambiae Akdr; format: in vivo; details: for An. gambiae AKDR LD50: topical application, 24 h mortality, female adults, pyrethroid-resistant Akdr strain; for An. gambiae RR (resistance ratio): 24 h LD50 resistant strain (AKDR)/24 h LD50 susceptible strain (G3)
Experimental: (§1) The Aedes aegypti strains Orlando (sensitive) as well as the Puerto Rico (PR, resistant to permethrin) were used. The Anopheles gambiae (G3 sensitive strain, as well as Akron kdr (Akdr) strain, resistant to pyrethroids were also assessed. The larvae were provided by the USDA, Gainesville Fl, and raised in a pan with tap water maintained at 28° C. Larvae were fed a ground liver and yeast mixture, and pupae were placed in emergence cages. Adults were held at 28° C. and provided with cotton balls soaked in 10% sugar water for rearing and for all bioassays.
(§2) Female adults from 3 to 6 days were used for the experiments. The drug was dissolved in ethanol and then applied with a micro-applicator on the thorax, between the legs: 200 nL of drug per female mosquito, with different concentrations of the drug; 10 mosquitos were treated together per concentration per replicate, and put together in a small container with free access to sweet water. Mortality, i.e. no visible movement, was assessed 24 hours after treatment. Every compound was assessed on at least 3 different cohorts of mosquitoes, and the LD50 values and slopes were determined with Probit analysis, corrected with Abbott's formula.

[4] = tested on: Anopheles gambiae G3 sensitive strain; test: Topical toxicity (24 hour mortality), An. gambiae G3; format: in vivo; details: topical application, 24 h mortality, female adults, susceptible strain G3
Method in brief: (§3)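 Females aged 3–6 days received 200 nL of compound in ethanol topically on the thorax, 10 per concentration per replicate, and were kept at 28° C with sugar water.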

[5] = tested on: Aedes aegypti strain Orlando (sensitive); test: Topical toxicity (24 hour mortality), Ae. aegypti Orlando; format: in vivo; details: topical application, 24 h mortality, female adults, susceptible Orlando strain
Method in brief: as §3

[6] = tested on: Aedes aegypti mosquitoes, insecticide-susceptible Orlando strain; details: 24 h; LC50 (OR)
[7] = tested on: Aedes aegypti strain Puerto Rico (PR, resistant to permethrin); test: Topical toxicity (24 hour mortality), Ae. aegypti Puerto Rico; format: in vivo; details: for Ae. aegypti RR (resistance ratio): 24 h LD50 resistant strain (PR)/24 h LD50 susceptible strain (OR); for Ae. aegypti PR LD50: topical application, 24 h mortality, female adults, permethrin-resistant Puerto Rico strain
Experimental: as §1, §2

SMILES | mortality at 100 µg/cm2 [1] | 1 h % Repellency, 100 μg/cm^2 ([2]; 1 h) | An. gambiae AKDR LD50 [3] | An. gambiae G3 LD50 [4] | Ae. aegypti OR LD50 [5] | 1 h Repellency EC50, μg/cm^2 ([2]; 1 h) | vapor repellency / mortality, statement in words (Example 8) [2] | 24 h LC50, μg/cm^2 [6] | An. gambiae RR (resistance ratio) [3] | Ae. aegypti RR (resistance ratio) [7] | Ae. aegypti PR LD50 [7] | knockdown in 1 hr repellency test (XXkd = number of insects incapacitated out of 16 females) ([2]; 100 μg/cm^2, 1 h, out of 16 females) | mortality at 10 µg/cm2 ([1]; read-out: 24 h % Mortality) | knockdown in 1 hr repellency test (XXkd) ([2]; screened at 10 μg/cm^2, 1 h, out of 16 females)
O=C(Nc1cc(Cl)cc(Cl)c1)C(F)(F)C(F)(F)OC(F)(F)F [GMR099] | 81% | 74% | >1000 ng/mg | >1000 ng/mg | 3279 ng/mg | – | – | – | – | – | – | – | – | –
CC(C(=O)Nc1cc(F)c(F)c(F)c1)(C(F)(F)F)C(F)(F)F [GMR139] | 100% | 24% | – | – | – | 6.9 μg/cm^2 | reduced repellency | 16.6 μg/cm^2 | – | – | – | – | – | –
O=C(Nc1ccnc(Br)c1)C(F)(F)C(F)(F)C(F)(F)C(F)(F)C(F)(F)F [GMR069] | 13% | −12% | 3425 ng/mg | – | 2261 ng/mg | – | – | – | – | – | – | – | – | –
O=C(Nc1c(Cl)cc(C(F)(F)F)cc1Cl)C(F)(F)C(F)(F)F [GMR138, N-(2,6-dichloro-4-(trifluoromethyl)phenyl)-2,2,3,3,3-pentafluoropropanamide] | 100% | 66% | 90.00 ng/mg | 120.00 ng/mg | 57.6 ng/mg | 5.3 μg/cm^2 | – | 0.3 μg/cm^2 | 0.8 | – | – | – | – | –
O=C(CCl)Nc1ccccc1C(F)(F)F [MTFI-2-1A] | 100% | 94% | – | – | – | 14 μg/cm^2 | – | 14 μg/cm^2 | – | – | – | – | – | –
CN(C(=O)C(F)(F)C(F)(F)C(F)(F)F)c1cc(Cl)nc(Cl)c1 [GMR095] | 100% | 84% | 775.00 ng/mg | 1300.00 ng/mg | 1576 ng/mg | 10 μg/cm^2 | – | 14 μg/cm^2 | 0.6 | – | – | – | – | –
O=C(Nc1cc(Cl)nc(Cl)c1)C(F)F [GMR028] | 59% | 12% | 28.2 ng/mg | 43.1 ng/mg | 266 ng/mg | – | – | – | 0.7 | 3.2 | 854 ng/mg | – | – | –
O=C(NCc1cc(Cl)nc(Cl)c1)C(F)(F)C(F)(F)C(F)(F)F [GMR107] | 0% | 50% | – | – | 2173 ng/mg | – | – | – | – | – | – | – | – | –
N#CC(F)(F)C(=O)Nc1cc(F)c(F)c(F)c1 [GMR102] | 22% | 74% | >100 ng/mg | >100 ng/mg | 2164 ng/mg | 28 μg/cm^2 | moderate repellency and toxicity | – | – | – | – | – | – | –
CC(C)(C)OC(=O)N(C(=O)C(F)(F)C(F)(F)F)c1c(Cl)cc(C(F)(F)F)cc1Cl [GMR150] | 100% | – | – | – | 629 ng/mg | – | – | 12 μg/cm^2 | – | – | – | 11 | – | –
O=C(OCc1c(F)c(F)cc(F)c1F)C(F)(F)C(F)(F)C(F)(F)F [GMR090] | 9% | −12% | >100 ng/mg | >100 ng/mg | >1000 ng/mg | – | – | – | – | – | – | – | – | –
O=C(Nc1c(F)c(F)nc(F)c1F)C(F)(F)C(F)(F)C(F)(F)C(F)(F)C(F)(F)F [GMR057] | – | – | 15.7 ng/mg | 28.4 ng/mg | 20 ng/mg | – | – | – | 0.6 | 0.4 | 8.90 ng/mg | – | – | –
O/N=C(\Nc1cc(Cl)nc(Cl)c1)C(F)(F)C(F)(F)C(F)(F)F [GMR104] | 0% | 12% | – | >100 ng/mg | 393 ng/mg | – | – | – | – | – | – | – | – | –
CNC(=O)Oc1ccccc1OC(C)C [Propoxur] | – | – | 201 ng/mg | 3.2 ng/mg | 3.0 ng/mg | – | – | – | 63 | 0.0 | – | – | – | –
O=C(Nc1cc(C(F)(F)F)ccn1)C(F)(F)C(F)(F)C(F)(F)F [GMR085] | 13% | 70% | >50 ng/mg | >100 ng/mg | >6000 ng/mg | 49 μg/cm^2 | – | – | – | – | – | – | – | –
CC(=O)N(C(C)=O)c1cccc(OC(F)(F)F)c1 [GMR159] | 19% | −26% | ~1000 ng/mg | >1000 ng/mg | – | – | – | – | – | – | – | – | – | –
O=C(Nc1cc(F)c(F)c(F)c1)C(F)(F)C(F)(F)OC(F)(F)F [GMR100] | – | – | >1000 ng/mg | >1000 ng/mg | 2374 ng/mg | 3 μg/cm^2 | – | 15 μg/cm^2 | – | – | – | – | 21% | 10
O=C(Nc1cc(Br)nc(Br)c1)C(F)(F)C(F)(F)C(F)(F)C(F)(F)C(F)(F)F [GMR056] | – | – | 3.2 ng/mg | 8.6 ng/mg | 15 ng/mg | – | – | – | 0.4 | 0.8 | 12.10 ng/mg | – | – | –
CC(C)(C)OC(=O)N(C(=O)C(F)(F)F)c1c(Cl)cc(C(F)(F)F)cc1Cl [GMR151] | 0% | 32% | – | – | >5000 ng/mg | – | – | – | – | – | – | – | – | –
O=C(Nc1cc(Cl)nc(C(F)(F)F)c1)C(F)(F)C(F)(F)C(F)(F)C(F)(F)C(F)(F)F [GMR055] | – | – | 4.0 ng/mg | 11.0 ng/mg | 10.5 ng/mg | – | – | – | 0.4 | 0.6 | 5.90 ng/mg | – | – | –
O=C(Nc1c(Cl)cc(C(F)(F)F)cc1Cl)C(F)(F)F [GMR149] | 81% | 44% | – | – | 251 ng/mg | – | – | – | – | – | – | – | – | –
CCC(=O)N(C(=O)CC)c1cccc(OC(F)(F)F)c1 [GMR161] | 72% | 74% | – | – | – | 36 μg/cm^2 | – | 52 μg/cm^2 | – | – | – | – | – | –
